Results as given in patent publication US20230295152A1 (SENDA BIOSCIENCES, INC., priority 2019, published 2023).

What follows are compounds tested against T1, AHR (Homo sapiens, UniProt P35869) (assay: DRE-Luciferase Reporter Assay, HepG2 AhR-Lucia reporter cells). Conditions: with AHR activating ligand at EC50, read-out: HepG2-Luc IC50.
T1 construct: other cell line with a DRE-luciferase reporter stably transfected; endogenous in cells; host or cells: HepG2 AhR-Lucia reporter cells
T1 sequence (P35869 11-848): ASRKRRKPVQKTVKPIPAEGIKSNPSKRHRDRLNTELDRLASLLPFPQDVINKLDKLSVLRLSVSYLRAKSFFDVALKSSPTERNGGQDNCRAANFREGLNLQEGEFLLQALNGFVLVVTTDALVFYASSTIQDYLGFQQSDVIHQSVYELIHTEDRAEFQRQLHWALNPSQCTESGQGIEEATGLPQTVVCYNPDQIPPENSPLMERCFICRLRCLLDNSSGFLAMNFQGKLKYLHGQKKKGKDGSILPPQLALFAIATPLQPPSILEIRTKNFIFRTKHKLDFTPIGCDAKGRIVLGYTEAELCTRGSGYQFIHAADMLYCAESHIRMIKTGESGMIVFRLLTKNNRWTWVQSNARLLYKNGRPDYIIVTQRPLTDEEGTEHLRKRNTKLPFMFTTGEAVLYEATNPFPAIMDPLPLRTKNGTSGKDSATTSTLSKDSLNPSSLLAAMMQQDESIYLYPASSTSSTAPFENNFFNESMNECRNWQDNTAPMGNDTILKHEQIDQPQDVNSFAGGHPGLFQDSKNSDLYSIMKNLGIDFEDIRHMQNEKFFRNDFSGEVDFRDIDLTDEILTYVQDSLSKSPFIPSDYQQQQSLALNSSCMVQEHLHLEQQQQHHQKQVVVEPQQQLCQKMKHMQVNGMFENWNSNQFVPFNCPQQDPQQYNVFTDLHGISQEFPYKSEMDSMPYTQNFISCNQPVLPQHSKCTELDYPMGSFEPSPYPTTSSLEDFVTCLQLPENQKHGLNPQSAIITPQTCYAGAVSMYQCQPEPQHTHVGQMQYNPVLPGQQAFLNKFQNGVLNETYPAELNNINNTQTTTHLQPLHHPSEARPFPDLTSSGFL
Assay type: cell-based
Text: AHR binds to Dioxin Responsive Elements (DRE) upstream of genes that it activates. One measure of AHR activity is activation of a reporter gene, such as luciferase, downstream of one or multiple DRE elements. Luciferase activity will reflect activation and inhibition of AHR in the cells expressing his reporter. 20000 Human HepG2 liver carcinoma—AhR-Lucia reporter cells or Human HT29 colon adenocarcinoma—AhR reporter cells or other cell line with a DRE-luciferase reporter stably transfected were plated in Eagle's Minimal Essential Medium, 10% heat-inactivated FBS, 1× non-essential amino acids Pen-Strep (10,000 U/mL) and Normocin (100 ug/mL) in plates (96-well, 384-well or other plates) and incubated overnight at 37° C. in a CO2 incubator and treated with and without AhR antagonists at a log dilution starting at 100 uM.
After 1 hr that cells were plated an AHR activating ligand, such as TCDD, kynurenine, ITE (2-(1H-indole-3-ylcarbonyl)-4-thiazolecarboxylic methyl ester), VAF347, BNF (beta-naphthoflavone), FICZ (6-formylindolo(3,2-b) carbazole) or other AHR ligands at their specific EC50 concentration, were added to the cells with or without AHR antagonist.
Cells were incubated for 24 or 48 hours or another time point and then, supernatant was analyzed for determination of luciferase activity as a read-out of the AHR activation or inhibition. Luciferase was measured with the commercial kit QUANTI-Luc™ assay solution kit from Invivogen following the manufacturer's instructions.
The level of luciferase with only agonist ligand added was the maximum signal while the luciferase with […] was the minimum signal. IC50 values were determined as the concentration which inhibits half of the luciferase activity.

Row | IC50 | SMILES
1 | > 500 nM | C[C@@H](CO)n1cnc2c(C3CCCCC3)nc(-c3ccc(C(F)(F)F)cn3)cc2c1=O [Compound 189, (S)-8-cyclohexyl-3-(1-hydroxypropan-2-yl)-6-(5-(trifluoromethyl)pyridin-2-yl)pyrido[3,4-d]pyrimidin-4(3H)-one]
2 | < 100 nM | O=c1c2cc(-c3ccc(C4CC4)nc3)nc(-c3cccnc3)c2ncn1C[C@@H](O)C(F)(F)F [Compound 121, (R)-6-(6-cyclopropylpyridin-3-yl)-8-(pyridin-3-yl)-3-(3,3,3-trifluoro-2-hydroxypropyl)pyrido[3,4-d]pyrimidin-4(3H)-one]
3 | < 100 nM | O=c1c2cc(-c3ccc(Cl)cc3)nc(-c3cccc(F)c3)c2ncn1C[C@@H](O)C(F)(F)F (stereo in doubt) [Compound 42]
4 | < 100 nM | Cn1cc(-c2nc(-c3ccc(C(F)(F)F)nc3)cc3c(=O)n([C@@H]4COC[C@@H]4O)cnc23)cn1 [Compound 130, 3-((3R,4R)-4-hydroxytetrahydrofuran-3-yl)-8-(1-methyl-1H-pyrazol-4-yl)-6-(6-(trifluoromethyl)pyridin-3-yl)pyrido[3,4-d]pyrimidin-4(3H)-one]
5 | < 100 nM | O=c1c2cc(-c3ccc(OC(F)(F)F)cc3)nc(-c3cccnc3)c2ncn1CC(O)C(F)(F)F (stereo not drawn) [Compound 14]
6 | < 100 nM | CC(C)(O)Cn1cnc2c(N3CCCCC3)nc(-c3ccc(C(F)(F)F)nc3)cc2c1=O [Compound 179, 3-(2-hydroxy-2-methylpropyl)-8-(piperidin-1-yl)-6-(6-(trifluoromethyl)pyridin-3-yl)pyrido[3,4-d]pyrimidin-4(3H)-one]
7 | < 100 nM | Cn1cc(-c2nc(-c3cnc(C(F)(F)F)s3)cc3c(=O)n([C@H]4COC[C@@H]4O)cnc23)cn1 [Compound 171, 3-((3S,4R)-4-hydroxytetrahydrofuran-3-yl)-8-(1-methyl-1H-pyrazol-4-yl)-6-(2-(trifluoromethyl)thiazol-5-yl)pyrido[3,4-d]pyrimidin-4(3H)-one]
8 | > 500 nM | C[C@@H](CO)n1cnc2c(-c3cccnc3)nc(C(=O)N(C)C)cc2c1=O [Compound 190, (S)-3-(1-hydroxypropan-2-yl)-N,N-dimethyl-4-oxo-8-(pyridin-3-yl)-3,4-dihydropyrido[3,4-d]pyrimidine-6-carboxamide]
9 | < 100 nM | O=c1c2cc(-c3ccc(Cl)cc3)nc(-c3cccc(F)c3)c2ncn1C[C@H](O)C(F)(F)F (stereo in doubt) [Compound 41]
10 | < 100 nM | C[C@@H](CO)n1cnc2c(-c3cnn(C)c3)nc(-c3cnc(C(F)(F)F)s3)cc2c1=O [Compound 168, (S)-3-(1-hydroxypropan-2-yl)-8-(1-methyl-1H-pyrazol-4-yl)-6-(2-(trifluoromethyl)thiazol-5-yl)pyrido[3,4-d]pyrimidin-4(3H)-one]
11 | 100 to 500 nM | Cc1ncccc1-c1nc(-c2ccc(C(F)(F)F)nc2)cc2c(=O)n([C@@H](C)CO)cnc12 [Compound 63]
12 | 100 to 500 nM | C[C@@H](CO)n1cnc2c(-n3cncn3)nc(-c3ccc(C(F)(F)F)nc3)cc2c1=O [Compound 164, (S)-3-(1-hydroxypropan-2-yl)-8-(1H-1,2,4-triazol-1-yl)-6-(6-(trifluoromethyl)pyridin-3-yl)pyrido[3,4-d]pyrimidin-4(3H)-one]
13 | 100 to 500 nM | C[C@@H](CO)n1cnc2c(-c3ccncc3)nc(-c3ccc(C(F)(F)F)nc3)cc2c1=O [Compound 4]
14 | > 500 nM | CC(C)(O)Cn1cnc2c(-c3cccnc3)nc(-c3cccnc3C(F)(F)F)cc2c1=O [Compound 80]
15 | < 100 nM | Cn1cnc2c(-c3cccnc3)nc(-c3ccc(OC(F)(F)F)cc3)cc2c1=O [Compound 28]
16 | 100 to 500 nM | C[C@@H](CO)n1cnc2c(-c3cnn(C)c3)nc(-c3ccccc3)cc2c1=O [Compound 26]

Row | IC50 | SMILES
17 | > 500 nM | C[C@@H](CO)n1cnc2c(-c3cccnc3)nc(-c3cnnn3C)cc2c1=O [Compound 184, (S)-3-(1-hydroxypropan-2-yl)-6-(1-methyl-1H-1,2,3-triazol-5-yl)-8-(pyridin-3-yl)pyrido[3,4-d]pyrimidin-4(3H)-one]
18 | > 500 nM | C[C@@H](C(=O)O)n1cnc2c(-c3cccnc3)nc(-c3ccc(C(F)(F)F)nc3)cc2c1=O [Compound 155, (S)-2-(4-oxo-8-(pyridin-3-yl)-6-(6-(trifluoromethyl)pyridin-3-yl)pyrido[3,4-d]pyrimidin-3(4H)-yl)propanoic acid]
19 | < 100 nM | O=c1c2cc(-c3ccc(C(F)(F)F)nc3)nc(-c3cccnc3)c2ncn1-c1ccccc1 [Compound 133, 3-phenyl-8-(pyridin-3-yl)-6-(6-(trifluoromethyl)pyridin-3-yl)pyrido[3,4-d]pyrimidin-4(3H)-one]
20 | > 500 nM | C[C@@H](CO)n1cnc2c(-c3cccnc3)nc(-c3ccc(C(=O)O)nc3)cc2c1=O [Compound 97]
21 | < 100 nM | CC(C)(O)Cn1cnc2c(-c3cnn(C(F)(F)F)c3)nc(-c3ccc(C(F)(F)F)nc3)cc2c1=O [Compound 94]
22 | < 100 nM | COC[C@H](C)n1cnc2c(-c3cccnc3)nc(-c3ccc(C)cc3)cc2c1=O [Compound 45, (S)-3-(1-methoxypropan-2-yl)-8-(pyridin-3-yl)-6-(p-tolyl)pyrido[3,4-d]pyrimidin-4(3H)-one]
23 | > 500 nM | Cc1ccc(-c2cc3c(=O)n([C@@H](C)COCc4ccccc4)cnc3c(-c3cccc(F)c3)n2)cc1 [Compound 40, 3-[(1S)-2-benzyloxy-1-methyl-ethyl]-8-(3-fluorophenyl)-6-(p-tolyl)pyrido[3,4-d]pyrimidin-4-one]
24 | < 100 nM | Cn1cc(-c2nc(-c3cnc(C(F)(F)F)s3)cc3c(=O)n(CC(C)(C)O)cnc23)cn1 [Compound 170, 3-(2-hydroxy-2-methylpropyl)-8-(1-methyl-1H-pyrazol-4-yl)-6-(2-(trifluoromethyl)thiazol-5-yl)pyrido[3,4-d]pyrimidin-4(3H)-one]
25 | < 100 nM | Cn1cc(-c2nc(-c3ccc(C(F)(F)F)cn3)cc3c(=O)n(C[C@@H](O)C(F)(F)F)cnc23)cn1 [Compound 146]
26 | < 100 nM | C[C@@H](CO)n1cnc2c(-c3cn[nH]c3)nc(-c3ccc(C(F)(F)F)nc3)cc2c1=O [Compound 62]
27 | 100 to 500 nM | C[C@@H](CO)n1cnc2c(C3=CCCN(C)C3)nc(-c3ccc(C(F)(F)F)nc3)cc2c1=O [Compound 91]
28 | 100 to 500 nM | C[C@@H](CO)n1cnc2c(-c3ccc(=O)[nH]c3)nc(-c3ccc(Cl)cc3)cc2c1=O [Compound 2]
29 | < 100 nM | C[C@@H](CO)n1cnc2c(N3CCCCC3)nc(-c3ccc(C(F)(F)F)nc3)cc2c1=O [Compound 175, (S)-3-(1-hydroxypropan-2-yl)-8-(piperidin-1-yl)-6-(6-(trifluoromethyl)pyridin-3-yl)pyrido[3,4-d]pyrimidin-4(3H)-one]
30 | 100 to 500 nM | C[C@@H](CO)n1cnc2c(-c3cncc(F)c3)nc(-c3cncc(F)c3)cc2c1=O [Compound 78]
31 | < 100 nM | C[C@@H](CO)n1cnc2c(-c3cncc(F)c3)nc(-c3ccc(C(F)(F)F)cc3)cc2c1=O [Compound 5]
32 | < 100 nM | Cn1cc(-c2nc(-c3ccc(C(F)(F)F)cn3)cc3c(=O)n(C[C@H](O)C(F)(F)F)cnc23)cn1 [Compound 147]

Row | SMILES | IC50
33 | O=c1c2cc(-c3ccc(Cl)cc3)nc(-c3cccnc3)c2ncn1C1COCC1O (racemic) [Compound 32] | < 100 nM
